Test results from PubChem BioAssay (NCI).
Where “and” joins values, the source holds several entries; their conditions need not be identical. Equal values may be shown once.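 The compound was tested at five concentrations on cells cultured in 96-well plates, with a 48-hour exposure period. At the GI50, growth is halved. TGI: total growth inhibition.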

Columns and labels:
Experiment in all cases: NCI tumour cell line growth inhibition, 48 h
[1] = test system: CAKI-1 renal
[2] = test system: HCT-15 colon
[3] = test system: SF-268 CNS
[4] = test system: U251 CNS
[5] = test system: A498 renal
[6] = test system: OVCAR-5 ovarian
[7] = test system: MALME-3M melanoma
[8] = test system: SF-295 CNS
[9] = test system: HOP-62 NSCLC
[10] = test system: CCRF-CEM leukemia

Compound | TGI [1] | TGI [2] | TGI [3] | TGI [4] | TGI [5] | TGI [6] | TGI [7] | TGI [8] | TGI [9] | TGI [10] [µM] | GI50 [7] | GI50 [10]
Cc1ccccc1NC(=O)O/N=C(\Cl)C(C)C | 3.2 µM | 4.17 µM | 45.1 µM | 39.9 µM | 36.4 µM | 40.5 µM | 5.73 µM | 33.7 µM | 33.4 µM | > 21.7 |  | 
CCC1(c2ccc(N3C(=O)c4cccc5cc([N+](=O)[O-])cc(c45)C3=O)cc2)CCC(=O)NC1=O (stereo not drawn) | 50.9 µM | > 100 µM | 51.8 µM | 23.8 µM | 97.8 µM | > 100 µM | 92.2 µM | 41.4 µM | 26.9 µM | 35 |  | 
C[C@]12CC[C@H]3[C@@H](CC=C4C[C@@H](N5CCCC5)CC[C@@]43C)[C@@H]1C[C@H](N1CCCCC1)[C@@H]2O | > 100 µM | > 100 µM | > 100 µM | > 100 µM | > 100 µM | > 100 µM | > 100 µM | > 100 µM | > 100 µM | > 100 |  | 
CSC(SC)=C(C(=O)c1ccc(Cl)cc1)n1c(=O)sc2cc(Br)ccc21 | > 100 µM | > 100 µM | > 100 µM | > 100 µM | > 100 µM | > 100 µM | > 100 µM | > 100 µM | > 100 µM | > 100 |  | 
CC(O)c1nc(C#N)c(N)o1 (stereo not drawn) | > 100 µM |  | > 100 µM | > 100 µM | > 100 µM | > 100 µM | > 100 µM | > 100 µM | > 100 µM | > 100 |  | 
CC(C)(C)C1CCC2c3c([nH]c4ccccc34)C3C(=O)N(c4ccc([N+](=O)[O-])cc4)C(=O)C3C2C1 (stereo not drawn) |  | > 100 µM | 34.8 µM | 38.5 µM | 79.4 µM | > 100 µM | 43.7 µM | 93.8 µM | 33.8 µM | > 100 |  | 
COc1cc2c[n+]3c4c(c2c(OC)c1OC)CCCC4CC3 (stereo not drawn) | > 100 µM | > 100 µM |  | > 100 µM | > 100 µM | > 100 µM | 46.9 µM | > 100 µM | > 100 µM | > 100 |  | 
COC(=O)c1c2c(cc3c1CC1(Cc4cc5c(c(C=O)c4C1)CCC5)C3)CCC2 (stereo not drawn) | > 100 µM | > 100 µM | > 100 µM | 57.3 µM | > 100 µM | > 100 µM | 61.7 µM | > 100 µM | > 100 µM | 56.7 |  | 
C=C1c2nc3ccccc3n2C=C(c2ccc(C)cc2)N1c1ccc(OC)cc1 | > 96.9 µM | > 100 µM | > 100 µM | > 100 µM | > 100 µM | > 100 µM | > 100 µM | > 100 µM | > 100 µM | > 100 |  | 
COC(=O)C1OC(O[C@H]2CC[C@]3(C)[C@H]4CC=C5[C@@H]6CC(C)(C)CC[C@]6(C(=O)OC6OCC(O)C(O)C6OC6OC(C)C(OC7OCC(O)C(O)C7O)C(O)C6O)[C@H](O)C[C@@]5(C)[C@]4(C)CC[C@H]3C2(C)C)C(O)C(O)C1O (stereo partly drawn) | 11.2 µM and 14.9 µM | 42.8 µM and 27.5 µM | 22.4 µM and 23.2 µM | 17.7 µM and 19.8 µM | 3.55 µM and 3.85 µM | 15.8 µM and 19.4 µM | 16.2 µM and 23.6 µM | 13.7 µM and 14.9 µM | 17.8 µM and 22.9 µM | > 100 | 4.78 µM and 11.2 µM | > 68.4 µM and 13.5 µM
CC(C)CCCC(C)[C@H]1CCC(C2C[C@@H](O)[C@@H]3CC(O)[C@@H](O)C[C@]3(CO)C2=O)[C@]1(C)CCO (stereo partly drawn) |  | > 66.8 µM | 54.1 µM | 37.7 µM | 48.9 µM | 55.8 µM | 44.8 µM | 40 µM | 52.8 µM | 40.9 |  | 
